Measured values as given in the supplement of paper PMC10307832.

Columns and labels:
Test in all cases: relative viability (nuclei count vs DMSO), 5 days (fraction); higher = more cells survive
[1] = compound: CO[C@@H]1[C@H](N(C)C(=O)c2ccccc2)C[C@H]2O[C@]1(C)n1c3ccccc3c3c4c(c5c6ccccc6n2c5c31)C(=O)NC4 [Midostaurin] + Nc1ncn([C@H]2C[C@H](O)[C@@H](CO)O2)c(=O)n1 [Decitabine] (partner 2 µM)
Summary of the method: (§1)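 Each reported value is a median over duplicate plates. It expresses relative viability: treated-well nuclei count divided by vehicle-well nuclei count. Lung cancer cell lines in 1536-well plates were dosed by pin tool a day after seeding, alone with one drug or with a fixed anchor-drug dose plus five library-drug doses (not always all listed) in √10 steps, and nuclei were counted after 5 days.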

[2] = compound: CO[C@@H]1[C@H](N(C)C(=O)c2ccccc2)C[C@H]2O[C@]1(C)n1c3ccccc3c3c4c(c5c6ccccc6n2c5c31)C(=O)NC4 [Midostaurin] + Cc1cc(Nc2cc(N3CCN(C)CC3)nc(Sc3ccc(NC(=O)C4CC4)cc3)n2)n[nH]1 [Tozasertib] (partner 0.1 µM)
Summary of the method: as §1

[3] = compound: CO[C@@H]1[C@H](N(C)C(=O)c2ccccc2)C[C@H]2O[C@]1(C)n1c3ccccc3c3c4c(c5c6ccccc6n2c5c31)C(=O)NC4 [Midostaurin] + CC(C)C[C@H](NC(=O)[C@H](Cc1ccccc1)NC(=O)c1cnccn1)B(O)O [Bortezomib] (partner 0.002 µM)
Summary of the method: as §1

[4] = compound: CO[C@@H]1[C@H](N(C)C(=O)c2ccccc2)C[C@H]2O[C@]1(C)n1c3ccccc3c3c4c(c5c6ccccc6n2c5c31)C(=O)NC4 [Midostaurin] + N=C(N)NC(=N)NCCc1ccccc1 [Phenformin] (partner 250 µM)
Summary of the method: as §1

[5] = compound: COc1cc(-c2nn([C@H]3CC[C@H](N4CCN(C(C)=O)CC4)CC3)c3ncnc(N)c23)ccc1NC(=O)c1cc2ccccc2n1C + Cc1nc(Nc2ncc(C(=O)Nc3c(C)cccc3Cl)s2)cc(N2CCN(CCO)CC2)n1 [Dasatinib] (partner 0.075 µM)
Summary of the method: as §1

Row | Cell Line | relative viability ([1]; first compound 0.01 µM) | relative viability ([1]; first compound 0.3162 µM) | relative viability ([2]; first compound 0.01 µM) | relative viability ([2]; first compound 0.03162 µM) | relative viability ([2]; first compound 0.1 µM) | relative viability ([2]; first compound 0.3162 µM) | relative viability ([3]; first compound 0.01 µM) | relative viability ([3]; first compound 0.03162 µM) | relative viability ([3]; first compound 0.1 µM) | relative viability ([3]; first compound 0.3162 µM) | relative viability ([1]; first compound 0.03162 µM) | relative viability ([1]; first compound 0.1 µM) | relative viability ([4]; first compound 0.01 µM) | relative viability ([4]; first compound 0.03162 µM) | relative viability ([4]; first compound 0.1 µM) | relative viability ([4]; first compound 0.3162 µM) | relative viability ([5]; first compound 0.0128 µM) | relative viability ([5]; first compound 0.04048 µM) | relative viability ([5]; first compound 0.128 µM) | relative viability ([5]; first compound 1.28 µM)
1 | NCI-H1648 | 0.499 | 0.446 | 0.511 | 0.609 | 0.417 | 0.299 |  |  |  |  |  |  |  |  |  |  |  |  |  | 
2 | NCI-H1703 |  |  |  |  |  |  | 0.427 | 0.256 | 0.373 | 0.153 |  |  |  |  |  |  |  |  |  | 
3 | NCI-H1792 | 0.555 | 0.431 |  |  |  |  | 0.943 | 0.949 | 0.911 | 0.949 | 0.515 | 0.529 | 0.508 | 0.303 | 0.428 | 0.309 | 0.505 | 0.731 | 0.749 | 0.645
4 | NCI-H1793 | 0.484 | 0.359 | 0.38 | 0.39 | 0.313 | 0.184 |  |  |  |  | 0.551 | 0.493 | 0.444 | 0.325 | 0.36 | 0.26 | 0.392 | 0.35 | 0.401 | 0.346
5 | NCI-H1944 | 0.463 | 0.394 | 0.268 | 0.269 | 0.261 | 0.232 |  |  |  |  | 0.439 | 0.375 | 0.217 | 0.196 | 0.239 | 0.235 | 0.221 | 0.203 | 0.224 | 0.206
6 | NCI-H2170 | 0.5 | 0.456 | 0.681 | 0.769 | 0.729 | 0.621 |  |  |  |  | 0.495 | 0.441 | 0.357 | 0.384 | 0.404 | 0.347 | 0.554 | 0.494 | 0.559 | 0.592
7 | NCI-H2228 |  |  | 0.254 | 0.284 | 0.265 | 0.216 | 1.21 | 1.19 | 1 | 0.942 |  |  | 0.405 | 0.363 | 0.366 | 0.5 | 0.474 | 0.436 | 0.52 | 0.456
8 | NCI-H2342 | 0.73 | 0.827 | 0.57 | 0.487 | 0.551 | 0.538 |  |  |  |  | 0.787 | 0.716 | 0.657 | 0.561 | 0.587 | 0.643 | 0.312 | 0.309 | 0.335 | 0.323
9 | SK-MES-1 | 0.42 | 0.381 | 0.803 | 0.819 | 0.741 | 0.578 |  |  |  |  | 0.41 | 0.333 | 0.647 | 0.582 | 0.631 | 0.562 | 0.44 | 0.34 | 0.378 | 0.384
10 | SW 900 | 0.407 | 0.433 | 0.578 | 0.525 | 0.59 | 0.466 |  |  |  |  | 0.491 | 0.439 | 0.608 | 0.451 | 0.653 | 0.395 | 0.616 | 0.707 | 0.487 | 0.578
